pIC50: −log10 of the molar value.
Experiments:
hT2R64 = hT2R64 (Homo sapiens (Human), UniProt P59538); assay: hT2R panel inhibition, transient HEK293 G16g44, agonist Aristolochic Acid 1 μM; assay type: cell-based; conditions: HEK293, compound at 25 μM; receptor activated to EC80 with the corresponding agonist; read-out: screening result against bitter receptor 64
Summary of the method: (§1)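 Compound C tested for reduction of receptor activity evoked by EC80-level bitter agonists, receptor by receptor. Assay cells: HEK293 line stably carrying promiscuous G protein G16g44, transiently transfected with individual human T2Rs.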

hT2R61 = hT2R61 (Homo sapiens (Human), UniProt P59537); assay: hT2R panel inhibition, transient HEK293 G16g44, agonist Aristolochic Acid 25 nM; assay type: cell-based; conditions: HEK293, compound at 25 μM; receptor activated to EC80 with the corresponding agonist; read-out: screening result against bitter receptor 61
Sequence of hT2R61 (P59537 whole entry): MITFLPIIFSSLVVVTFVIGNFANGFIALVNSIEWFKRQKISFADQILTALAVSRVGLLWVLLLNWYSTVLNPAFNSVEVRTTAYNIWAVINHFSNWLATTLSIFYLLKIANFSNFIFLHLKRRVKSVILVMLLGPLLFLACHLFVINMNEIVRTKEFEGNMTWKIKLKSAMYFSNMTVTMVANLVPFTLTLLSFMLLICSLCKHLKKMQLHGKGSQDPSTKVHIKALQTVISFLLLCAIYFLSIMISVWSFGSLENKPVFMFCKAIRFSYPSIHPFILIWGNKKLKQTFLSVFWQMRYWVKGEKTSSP
Summary of the method: as §1

hT2R10 = hT2R10 (Homo sapiens (Human), UniProt Q9NYW0); assay: hT2R panel inhibition, transient HEK293 G16g44, agonist Strychnine 50 μM; assay type: cell-based; conditions: HEK293, read-out: screening result against bitter receptor 10, compound at 25 μM; receptor activated to EC80 with the corresponding agonist
Sequence of hT2R10 (Q9NYW0 whole entry): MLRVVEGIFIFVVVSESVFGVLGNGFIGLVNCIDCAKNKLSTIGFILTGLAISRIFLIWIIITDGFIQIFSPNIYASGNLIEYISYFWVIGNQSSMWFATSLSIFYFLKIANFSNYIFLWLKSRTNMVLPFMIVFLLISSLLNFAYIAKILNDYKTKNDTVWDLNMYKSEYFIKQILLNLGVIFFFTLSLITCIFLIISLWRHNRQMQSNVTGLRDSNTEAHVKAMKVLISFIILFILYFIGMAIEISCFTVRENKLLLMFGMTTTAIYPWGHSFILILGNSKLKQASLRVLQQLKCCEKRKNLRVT

hT2R65 = assay: hT2R panel inhibition, transient HEK293 G16g44, agonist Oleuropein 1 mM; assay type: cell-based, human; conditions: compound at 25 μM; receptor activated to EC80 with the corresponding agonist
Summary of the method: as §1

hT2R7 = hT2R7 (Homo sapiens (Human), UniProt Q9NYW3); assay: hT2R panel inhibition, transient HEK293 G16g44, agonist Chloroquine pH6.5 10 mM; assay type: cell-based; conditions: HEK293, compound at 25 μM; receptor activated to EC80 with the corresponding agonist; read-out: screening result against bitter receptor 7
Sequence of hT2R7 (Q9NYW3 whole entry): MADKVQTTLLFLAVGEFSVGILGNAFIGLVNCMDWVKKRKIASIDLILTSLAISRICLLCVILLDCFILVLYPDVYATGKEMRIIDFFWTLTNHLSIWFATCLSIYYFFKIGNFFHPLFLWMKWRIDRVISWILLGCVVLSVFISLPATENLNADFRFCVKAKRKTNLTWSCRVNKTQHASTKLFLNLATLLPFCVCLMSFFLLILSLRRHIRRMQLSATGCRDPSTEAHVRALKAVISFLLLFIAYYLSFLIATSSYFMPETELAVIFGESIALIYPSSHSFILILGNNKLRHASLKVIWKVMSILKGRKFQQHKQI
Summary of the method: as §1

hT2R14 [1] = target: T1, hT2R14 (Homo sapiens (Human), UniProt Q9NYV8); assay: hT2R14 antagonist high-throughput FLIPR assay, stable cell line with G16g44, agonist aristolochic acid; assay type: cell-based; conditions: read-out: IC50 on hT2R14 bitter receptor
T1 sequence (Q9NYV8 whole entry): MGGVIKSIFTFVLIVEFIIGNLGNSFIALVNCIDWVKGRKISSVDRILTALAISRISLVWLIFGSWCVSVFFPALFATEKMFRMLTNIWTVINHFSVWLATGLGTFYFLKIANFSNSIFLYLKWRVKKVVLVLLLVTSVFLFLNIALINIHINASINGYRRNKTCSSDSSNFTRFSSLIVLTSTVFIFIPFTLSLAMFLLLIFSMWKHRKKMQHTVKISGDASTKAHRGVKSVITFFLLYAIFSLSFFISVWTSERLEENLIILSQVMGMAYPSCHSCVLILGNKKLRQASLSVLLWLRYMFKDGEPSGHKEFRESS
Summary of the method: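 Compounds were co-applied with 3 μM aristolochic acid, a dose set to reach 70-80% of maximal hT2R14 activation. Read-out was FLIPR fluorescence in a stable HEK293 line co-expressing hT2R14 and G16g44.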

hT2R63 = assay: hT2R panel inhibition, transient HEK293 G16g44, agonist Caffeine 1 mM or Andrographolide 100 μM; assay type: cell-based, human; conditions: compound at 25 μM; receptor activated to EC80 with the corresponding agonist
Summary of the method: as §1

hT2R67 = assay: hT2R panel inhibition, transient HEK293 G16g44, agonist Andrographolide 5 μM; assay type: cell-based, human; conditions: compound at 25 μM; receptor activated to EC80 with the corresponding agonist
Summary of the method: as §1

hT2R3 = hT2R3 (Homo sapiens (Human), UniProt Q9NYW6); assay: hT2R panel inhibition, transient HEK293 G16g44, agonist Chloroquine pH6.5 50 μM; assay type: cell-based; conditions: HEK293, compound at 25 μM; receptor activated to EC80 with the corresponding agonist; read-out: screening result against bitter receptor 3
Sequence of hT2R3 (Q9NYW6 whole entry): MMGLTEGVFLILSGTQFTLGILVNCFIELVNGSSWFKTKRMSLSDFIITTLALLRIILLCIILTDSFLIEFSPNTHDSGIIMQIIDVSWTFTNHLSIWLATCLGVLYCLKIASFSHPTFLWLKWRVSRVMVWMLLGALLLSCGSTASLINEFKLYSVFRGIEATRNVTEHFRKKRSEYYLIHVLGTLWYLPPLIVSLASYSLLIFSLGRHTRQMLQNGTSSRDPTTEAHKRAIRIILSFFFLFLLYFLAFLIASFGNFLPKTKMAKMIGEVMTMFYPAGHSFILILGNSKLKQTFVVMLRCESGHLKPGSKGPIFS
Summary of the method: as §1

hT2R44 = assay: hT2R panel inhibition, transient HEK293 G16g44, agonist Denatonium 0.5 μM; assay type: cell-based, human; conditions: compound at 25 μM; receptor activated to EC80 with the corresponding agonist
Summary of the method: as §1

hT2R75 = hT2R75 (Homo sapiens (Human), UniProt P59540); assay: hT2R panel inhibition, transient HEK293 G16g44, agonist Strychnine 1 μM; assay type: cell-based; conditions: HEK293, read-out: screening result against bitter receptor 75, compound at 25 μM; receptor activated to EC80 with the corresponding agonist
Sequence of hT2R75 (P59540 whole entry): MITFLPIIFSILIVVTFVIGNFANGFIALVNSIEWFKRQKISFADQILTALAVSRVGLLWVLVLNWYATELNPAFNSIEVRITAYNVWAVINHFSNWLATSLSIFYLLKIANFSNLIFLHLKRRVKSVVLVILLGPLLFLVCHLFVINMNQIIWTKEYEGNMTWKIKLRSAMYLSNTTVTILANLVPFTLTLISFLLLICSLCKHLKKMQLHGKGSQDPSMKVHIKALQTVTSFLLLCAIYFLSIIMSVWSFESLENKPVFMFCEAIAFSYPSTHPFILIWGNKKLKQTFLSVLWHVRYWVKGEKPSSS

hT2R55 = assay: hT2R panel inhibition, transient HEK293 G16g44, agonist Cinchonine 150 μM; assay type: cell-based, human; conditions: compound at 25 μM; receptor activated to EC80 with the corresponding agonist
Summary of the method: as §1

hT2R71 = hT2R71 (Homo sapiens (Human), UniProt P59536); assay: hT2R panel inhibition, transient HEK293 G16g44, agonist Picric Acid 10 μM; assay type: cell-based; conditions: HEK293, compound at 25 μM; receptor activated to EC80 with the corresponding agonist; read-out: screening result against bitter receptor 71
Sequence of hT2R71 (P59536 whole entry): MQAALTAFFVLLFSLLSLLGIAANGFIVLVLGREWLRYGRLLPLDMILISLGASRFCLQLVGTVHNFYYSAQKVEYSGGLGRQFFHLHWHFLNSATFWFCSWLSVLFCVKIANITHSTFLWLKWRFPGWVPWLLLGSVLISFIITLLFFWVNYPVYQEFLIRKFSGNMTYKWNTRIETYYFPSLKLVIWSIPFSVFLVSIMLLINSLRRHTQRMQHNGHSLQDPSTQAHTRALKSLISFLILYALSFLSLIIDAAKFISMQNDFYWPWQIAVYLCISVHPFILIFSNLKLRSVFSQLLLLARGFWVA
Summary of the method: as §1

hT2R13 = hT2R13 (Homo sapiens (Human), UniProt Q9NYV9); assay: hT2R panel inhibition, transient HEK293 G16g44, agonist Oxyphenonium 1 mM; assay type: cell-based; conditions: HEK293, compound at 25 μM; receptor activated to EC80 with the corresponding agonist; read-out: screening result against bitter receptor 13
Sequence of hT2R13 (Q9NYV9 whole entry): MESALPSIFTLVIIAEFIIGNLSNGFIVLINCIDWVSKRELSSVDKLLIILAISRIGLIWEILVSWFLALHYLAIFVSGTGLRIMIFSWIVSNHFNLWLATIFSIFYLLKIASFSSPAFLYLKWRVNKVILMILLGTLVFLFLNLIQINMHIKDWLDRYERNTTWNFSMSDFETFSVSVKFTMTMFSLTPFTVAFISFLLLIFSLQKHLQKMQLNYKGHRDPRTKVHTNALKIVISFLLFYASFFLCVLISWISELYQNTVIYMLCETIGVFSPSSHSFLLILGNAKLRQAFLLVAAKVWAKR
Method: Specifically, in order to evaluate the inhibitory selectivity of the Compound C compound, this compound was tested against 22 human T2Rs which were deorphaned by Senomyx. These receptors and the bitter ligands that activate these human T2Rs are reported in earlier patent applications which are incorporated by reference herein. These 22 human T2Rs are hT2R1, 3, 4, 5, 7, 8, 9, 10, 13, 14, 16, 44, 51, 54, 55, 61, 63, 64, 65, 67, 71 and 75. The amino acid and nucleic acid sequences of all of these T2Rs may be found in these earlier patent applications. These human T2Rs were each individually transiently transfected into HEK293 cells that stably express the promiscuous G protein G16g44 and functional assays were effected using these receptors as disclosed in these same patent applications. […] The ligands were used at EC80 concentration levels. The list of bitter ligands utilized and the tested ligand concentrations are contained in Table 5 of this example.
Relating to the foregoing, FIG. 5 contains experimental results wherein Compound C was tested with different agonist compounds. The inhibition activity is represented by the reduction of receptor activity in the presence of Compound C. […] These 13 hT2Rs are hT2R3, 7, 10, 14, 16, 44, 51, 55, 61, 63, 64, 65, and 71.

hT2R16 = hT2R16 (Homo sapiens (Human), UniProt Q9NYV7); assay: hT2R panel inhibition, transient HEK293 G16g44, agonist Salicin 1 mM; assay type: cell-based; conditions: HEK293, compound at 25 μM; receptor activated to EC80 with the corresponding agonist; read-out: screening result against bitter receptor 16
Sequence of hT2R16 (Q9NYV7 whole entry): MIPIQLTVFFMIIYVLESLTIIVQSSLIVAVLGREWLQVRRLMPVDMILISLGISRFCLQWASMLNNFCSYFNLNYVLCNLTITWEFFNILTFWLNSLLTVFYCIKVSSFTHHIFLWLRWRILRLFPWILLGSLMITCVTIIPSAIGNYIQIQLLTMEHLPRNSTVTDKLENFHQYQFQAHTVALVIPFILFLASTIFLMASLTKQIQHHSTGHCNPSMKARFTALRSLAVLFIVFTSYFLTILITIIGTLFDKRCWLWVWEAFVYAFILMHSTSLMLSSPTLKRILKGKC
Summary of the method: as §1

hT2R54 = assay: hT2R panel inhibition, transient HEK293 G16g44, agonist Ranitidine 5 mM; assay type: cell-based, human; conditions: compound at 25 μM; receptor activated to EC80 with the corresponding agonist
Summary of the method: as §1

hT2R14 [2] = target: T1, hT2R14; assay: hT2R panel inhibition, transient HEK293 G16g44, agonist Aristolochic Acid 2 μM; assay type: cell-based; conditions: HEK293, compound at 25 μM; receptor activated to EC80 with the corresponding agonist; read-out: screening result against bitter receptor 14
Summary of the method: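 Agonist challenge was at EC80, with 0.5 mM andrographolide on hT2R8 and 2 μM aristolochic acid on hT2R14. Inhibition was measured in functional assays in HEK293 cells that stably carry the promiscuous G protein G16g44 and were transiently transfected with the individual receptor.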

hT2R51 = hT2R51 (Homo sapiens (Human), UniProt P59533); assay: hT2R panel inhibition, transient HEK293 G16g44, agonist Prop 2.5 μM; assay type: cell-based; conditions: HEK293, compound at 25 μM; receptor activated to EC80 with the corresponding agonist; read-out: screening result against bitter receptor 51
Sequence of hT2R51 (P59533 whole entry): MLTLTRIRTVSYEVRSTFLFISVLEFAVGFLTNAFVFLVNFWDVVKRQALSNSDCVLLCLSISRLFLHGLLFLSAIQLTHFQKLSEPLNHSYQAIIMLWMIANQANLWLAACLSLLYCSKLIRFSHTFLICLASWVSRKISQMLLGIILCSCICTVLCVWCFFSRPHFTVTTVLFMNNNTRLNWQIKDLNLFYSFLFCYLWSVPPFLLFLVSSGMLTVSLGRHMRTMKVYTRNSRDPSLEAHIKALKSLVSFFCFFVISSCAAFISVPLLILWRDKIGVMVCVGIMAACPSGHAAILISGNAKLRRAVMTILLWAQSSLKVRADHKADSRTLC
Summary of the method: as §1

hT2R5 = hT2R5 (Homo sapiens (Human), UniProt Q9NYW4); assay: hT2R panel inhibition, transient HEK293 G16g44, agonist Picoline 10 mM; assay type: cell-based; conditions: HEK293, compound at 25 μM; receptor activated to EC80 with the corresponding agonist; read-out: screening result against bitter receptor 5
Sequence of hT2R5 (Q9NYW4 whole entry): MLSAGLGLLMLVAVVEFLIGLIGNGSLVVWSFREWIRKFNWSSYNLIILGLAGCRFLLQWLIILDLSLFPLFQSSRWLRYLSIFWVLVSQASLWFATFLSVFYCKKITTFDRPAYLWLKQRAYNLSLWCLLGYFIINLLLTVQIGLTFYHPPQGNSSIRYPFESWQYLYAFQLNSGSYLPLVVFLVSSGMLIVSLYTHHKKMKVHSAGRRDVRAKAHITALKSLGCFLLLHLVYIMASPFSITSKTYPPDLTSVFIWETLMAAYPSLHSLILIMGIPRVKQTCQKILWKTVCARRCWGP
Summary of the method: as §1

Sequence of hT2R64 (P59538 whole entry): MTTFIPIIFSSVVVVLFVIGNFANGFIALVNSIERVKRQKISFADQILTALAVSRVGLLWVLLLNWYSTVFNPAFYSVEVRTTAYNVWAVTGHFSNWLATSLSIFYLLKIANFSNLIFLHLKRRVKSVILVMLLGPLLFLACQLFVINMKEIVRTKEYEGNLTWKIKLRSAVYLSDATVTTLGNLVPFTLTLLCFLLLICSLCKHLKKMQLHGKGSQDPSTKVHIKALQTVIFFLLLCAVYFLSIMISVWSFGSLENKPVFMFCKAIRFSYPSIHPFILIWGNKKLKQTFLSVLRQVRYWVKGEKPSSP

Row | SMILES | inhibition at 25 µM (hT2R64) | inhibition at 25 µM (hT2R61) | inhibition at 25 µM (hT2R10) | screening result against bitter receptor 65 (hT2R65) | inhibition at 25 µM (hT2R7) | pIC50 (hT2R14 [1]) | screening result against bitter receptor 63 (hT2R63) | screening result against bitter receptor 67 (hT2R67) | inhibition at 25 µM (hT2R3) | screening result against bitter receptor 44 (hT2R44) | inhibition at 25 µM (hT2R75) | screening result against bitter receptor 55 (hT2R55) | inhibition at 25 µM (hT2R71) | inhibition at 25 µM (hT2R13) | inhibition at 25 µM (hT2R16) | screening result against bitter receptor 54 (hT2R54) | inhibition at 25 µM (hT2R14 [2]) | inhibition at 25 µM (hT2R51) | inhibition at 25 µM (hT2R5)
1 | O=C(O)c1ccc(S(=O)(=O)N(Cc2ccccc2)Cc2ccco2)cc1 [Example 5-5, 4-(N-benzyl-N-(furan-2-ylmethyl)sulfamoyl)benzoic acid] | 60 to 80% | > 80% | 20 to 40% | + (20% to 40% inhibition = +) | 40 to 60% | 5.34 | ++++ (80% or greater inhibition = ++++) | + (20% to 40% inhibition = +) | 40 to 60% | ++ (40% to 60% inhibition = ++) | 20 to 40% | ++++ (80% or greater inhibition = ++++) | 60 to 80% | 20 to 40% | 40 to 60% | + (20% to 40% inhibition = +) | > 80% | 20 to 40% | 20 to 40%
2 | COc1ccc(CN(Cc2ccoc2)S(=O)(=O)c2ccc(C(=O)O)cc2)cc1 [Example 5-27, 4-(N-(furan-3-ylmethyl)-N-(4-methoxybenzyl)sulfamoyl)benzoic acid] | 60 to 80% | > 80% | 60 to 80% | ++ (40% to 60% inhibition = ++) | 20 to 40% | – | +++ (60% to 80% inhibition = +++) | ++ (40% to 60% inhibition = ++) | 40 to 60% | +++ (60% to 80% inhibition = +++) | 20 to 40% | ++++ (80% or greater inhibition = ++++) | 60 to 80% | 20 to 40% | 20 to 40% | ++ (40% to 60% inhibition = ++) | > 80% | 40 to 60% | 40 to 60%
3 | O=C(O)c1ccc(S(=O)(=O)N(Cc2ccccc2)Cc2ccccc2)cc1 [Example 5-28, 4-(N,N-dibenzylsulfamoyl)benzoic acid] | > 80% | 40 to 60% | – | – | – | 5.11 | ++++ (80% or greater inhibition = ++++) | + (20% to 40% inhibition = +) | – | + (20% to 40% inhibition = +) | 20 to 40% | ++++ (80% or greater inhibition = ++++) | 40 to 60% | 20 to 40% | 20 to 40% | + (20% to 40% inhibition = +) | > 80% | 40 to 60% | –
4 | CCc1ccc(CN(Cc2ccccc2)S(=O)(=O)c2ccc(C(=O)O)cc2)cc1 [Example 5-85, 4-(N-benzyl-N-(4-ethylbenzyl)sulfamoyl)benzoic acid] | – | > 80% | 40 to 60% | +++ (60% to 80% inhibition = +++) | 20 to 40% | – | +++ (60% to 80% inhibition = +++) | ++ (40% to 60% inhibition = ++) | 40 to 60% | – | 20 to 40% | +++ (60% to 80% inhibition = +++) | 20 to 40% | 20 to 40% | 40 to 60% | +++ (60% to 80% inhibition = +++) | > 80% | 20 to 40% | 20 to 40%
5 | O=C(O)c1ccc(S(=O)(=O)N(Cc2ccccc2)Cc2ccc3c(c2)OCO3)cc1 [Example 5-93, 4-(N-(benzo[d][1,3]dioxol-5-ylmethyl)-N-benzylsulfamoyl)benzoic acid] | > 80% | > 80% | 40 to 60% | – | 20 to 40% | – | ++++ (80% or greater inhibition = ++++) | ++ (40% to 60% inhibition = ++) | – | +++ (60% to 80% inhibition = +++) | – | ++++ (80% or greater inhibition = ++++) | 60 to 80% | 20 to 40% | 40 to 60% | +++ (60% to 80% inhibition = +++) | > 80% | 40 to 60% | 20 to 40%

— patent US9247759B2, “Identification of human T2R receptors that respond to bitter compounds that elicit the bitter taste in compositions, and the use thereof in assays to identify compounds that inhibit (block) bitter taste in compositions and use thereof” (SENOMYX, INC., priority 2007, dated 2016)
